Molecular target: Human immunodeficiency virus type 1 protease (Human immunodeficiency virus 1, UniProt Q72874)
Test: Inhibitory activity against HIV-1 Protease

## CC1(C)S[C@H]([C@H](NC(=O)Cc2ccccc2)C(=O)NCc2ccccc2)NC1C(=O)NCCCNC(=O)[C@@H]1N[C@@H]([C@H](NC(=O)Cc2ccccc2)C(=O)NCc2ccccc2)SC1(C)C (some centres not stated)
  IC50: 540 nM

## CCNC(=O)[C@@H](NC(=O)c1ccccc1)[C@@H]1NC(C(=O)NCCNC(=O)[C@@H]2N[C@@H]([C@H](NC(=O)c3ccccc3)C(=O)NCC)SC2(C)C)C(C)(C)S1 (some centres not stated)
  IC50: 390 nM

## CCNC(=O)[C@@H](NC(=O)Cc1ccccc1)[C@@H]1NC(C(=O)NCCNC(=O)[C@@H]2N[C@@H]([C@H](NC(=O)Cc3ccccc3)C(=O)NCC)SC2(C)C)C(C)(C)S1 (some centres not stated)
  IC50: 3 nM

## CCNC(=O)[C@@H](NC(=O)c1c(-c2ccccc2)noc1C)[C@@H]1NC(C(=O)NCCNC(=O)[C@@H]2N[C@@H]([C@H](NC(=O)c3c(-c4ccccc4)noc3C)C(=O)NCC)SC2(C)C)C(C)(C)S1 (some centres not stated)
  IC50: 5.4 nM

## CCNC(=O)[C@@H](NC(=O)c1ccccc1-c1ccccc1)[C@@H]1NC(C(=O)NCCNC(=O)[C@@H]2N[C@@H]([C@H](NC(=O)c3ccccc3-c3ccccc3)C(=O)NCC)SC2(C)C)C(C)(C)S1 (some centres not stated)
  IC50: 9.9 nM

## CC1(C)S[C@H]([C@H](NC(=O)Cc2ccccc2)C(=O)NCc2ccccc2)NC1C(=O)NCC(O)CNC(=O)[C@@H]1N[C@@H]([C@H](NC(=O)Cc2ccccc2)C(=O)NCc2ccccc2)SC1(C)C (some centres not stated)
  IC50: 5 nM

## CC1(C)S[C@H]([C@H](NC(=O)Cc2ccccc2)C(=O)NCC(F)(F)F)NC1C(=O)NCCNC(=O)[C@@H]1N[C@@H]([C@H](NC(=O)Cc2ccccc2)C(=O)NCC(F)(F)F)SC1(C)C (some centres not stated)
  IC50: 4.4 nM

Reference: ChEMBL document CHEMBL1126853, “A series of penicillin-derived C2-symmetric inhibitors of HIV-1 proteinase: structural and modeling studies” (J Med Chem, 1993)
